These results are taken from the supplement of paper PMC3937590.

Holding throughout (assay): -log10 GI50 (growth inhibition 50%) (-log10(M)); higher = more potent growth inhibition
One assay concerns HCC1937. Summed up:
(§1)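 Breast cancer cell lines were treated with each compound for 72 hours at nine doses in 1:5 serial dilution, in triplicate, and luminescence was read against a time-zero plate. A Gompertz curve was fitted to the dose-response data by nonlinear least squares to obtain GI50, the molar concentration giving the set level of growth inhibition, which is reported as its negative logarithm. The logarithm is base 10, and values equal to the top dose carry a < qualifier.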

A further assay deals with MX1. Summed up: as §1
Another assay has as its system MDAMB134VI. Summed up: as §1
The test system of a further assay is MCF10A. In outline:
as §1

The subject of the next assay is T47D. Summed up:
as §1

The next assay relates to MDAMB175VII. Summed up: as §1
A further assay relates to 21NT. In outline:
as §1

The subject of a further assay is 21MT1. In outline: as §1
In the next assay the test system is HCC1428. Summed up: as §1
The next assay concerns HCC1954. In outline:
as §1

The next assay has as its system HBL100. Summed up: as §1
In a further assay the test system is ZR7530. In outline: as §1
In another assay the test system is T4. Summed up: as §1
Another assay relates to S1. In outline:
as §1

For the next assay, the system named is MDAMB468. In outline: as §1
A further assay has as its system MDAMB436. In outline:
as §1

For the next assay, the system named is BT483. Summed up:
as §1

For the next assay, the system named is UACC893. Summed up:
as §1

In another assay the test system is SUM102PT. In outline:
as §1

The subject of a further assay is HCC202. Summed up:
as §1

Bounds are passed on as bounds.

On to `CC(=O)NCC(=O)N1[C@@H]2CC[C@H]1c1ccc(Nc3ncc(C(F)(F)F)c(NC4CCC4)n3)cc12`, for which the “-log10 GI50” value with HCC1937 worked out at 5.2; with MX1 it was 7; in the assay on MDAMB134VI, 5.3; with MCF10A it was 6.36; with T47D it was 5.14; in the assay on MDAMB175VII, 5.63. Moreover, the “-log10 GI50” value in the assay on 21NT turned out to be 5.54; in the assay with 21MT1, 5.78; in the assay on HCC1428, 5.37; with HCC1954 it was 5.16.
Take `CC(C)Oc1ccc(C(=O)N[C@H](CNC(=O)CN(C)C)Cc2ccc(-c3cn4cccc([C@H](C)O)c4n3)cc2)cc1Cl`: the “-log10 GI50” value came to 7.36 with HCC1937; 7.33 in the assay on HBL100; 7.68 in the assay with ZR7530; 6.52 in the assay with MDAMB134VI; 7.29 in the assay on MCF10A; 7.2 in the assay on T4. Also, the “-log10 GI50” value amounted to 7.29 in the assay on T47D; 6.37 in the assay on S1; 7.61 with MDAMB468; 6.76 in the assay on MDAMB175VII; 7.92 with MDAMB436; 6.44 in the assay with BT483. Moreover, the “-log10 GI50” value in the assay on UACC893 came out at 7.7; with SUM102PT, 5.18; in the assay with HCC202, 7.76; in the assay on HCC1428 it was 5.99; in the assay with HCC1954, 7.6.
On to `CCC[C@H](N[C@H]1CCc2cc(F)cc(F)c2C1)C(=O)Nc1cn(C(C)(C)CNCC(C)(C)C)cn1`, for which the “-log10 GI50” value in the assay on HCC1937 is 4.54; with MX1, 5.76; in the assay on MDAMB134VI it was 4.33; in the assay with MCF10A, less than 4.18; with T47D it was 4.91; in the assay on MDAMB175VII, 5.24. Besides, the “-log10 GI50” value with 21NT is less than 4.18; in the assay on 21MT1 it was 4.38; with HCC1428, 4.45; with HCC1954 it was 4.84.
Turning to `CCNCCCNC/C=C\CNCCCNCC`, the “-log10 GI50” value was 5.24 with HCC1937; 2.94 in the assay on HBL100; less than 2.3 in the assay on ZR7530; 2.97 in the assay on MDAMB134VI; 4.2 in the assay on MCF10A; 4.76 in the assay on T4. Besides, the “-log10 GI50” value in the assay with T47D amounted to 5.67; in the assay with S1 it was 5.46; in the assay on MDAMB175VII, 3.21; in the assay on MDAMB436, 3.43; in the assay on BT483, 3.27; in the assay with UACC893 it was 3.63. The “-log10 GI50” value came to 5.98 in the assay with SUM102PT, 4.75 in the assay on HCC202, 3.74 in the assay with HCC1428 and 6.52 in the assay with HCC1954.
Turning to `CCn1cc(-c2ccnc3[nH]c(-c4cccc(CN(C)C)c4)cc23)c(-c2ccc(NC(=O)N(C)C)cc2)n1`, the “-log10 GI50” value in the assay on HCC1937 came to 5.73; in the assay on HBL100 it was 7.15; in the assay with MDAMB134VI, 5.59; in the assay on MCF10A, 6.12; in the assay with T4, 6.63; in the assay with T47D it was 5.36. The “-log10 GI50” value with S1 was found to be 6.36; in the assay with MDAMB468, 7.89; in the assay with MDAMB175VII, 5.07; in the assay on MDAMB436, 7.19; in the assay on BT483 it was 5.35; in the assay on UACC893, 5.06. Moreover, the “-log10 GI50” value in the assay with SUM102PT stood at 5.52; in the assay with HCC202, 6.03; in the assay on HCC1428 it was 5.69; in the assay on HCC1954 it was 5.57.
For `COc1ccc(-c2cc3c(C)nc(N)nc3n([C@H]3CC[C@H](OCCO)CC3)c2=O)cn1`, the “-log10 GI50” value in the assay on HCC1937 amounted to 6.92; in the assay on MX1, 7.41; in the assay on MDAMB134VI, 6.8; in the assay with MCF10A, 6.69; with T47D, 7.27; in the assay on MDAMB175VII, 7.23. For the same compound, the “-log10 GI50” value was 5.84 with 21NT, 6.54 in the assay with 21MT1, 6.51 in the assay on HCC1428 and 6.88 in the assay on HCC1954.
As for `C[C@@H](Oc1cc(-c2cnn(C3CCNCC3)c2)cnc1N)c1c(Cl)ccc(F)c1Cl`, the “-log10 GI50” value is 5.25 in the assay on HCC1937; 5.84 in the assay on MX1; 5.57 in the assay on MDAMB134VI; 5.59 with MCF10A; 5.34 in the assay on T47D; 5.23 in the assay on MDAMB175VII. In addition, the “-log10 GI50” value with 21NT worked out at 5.18; in the assay on 21MT1, 5.23; in the assay on HCC1428, 5.13; in the assay on HCC1954, 5.45.
On to `C[C@@H](Oc1cc(-n2cnc3ccc(CN4CCN(C)CC4)cc32)sc1C(N)=O)c1ccccc1C(F)(F)F`, for which the “-log10 GI50” value in the assay with HCC1937 was determined as 7.5; in the assay on HBL100, 8.7; with ZR7530 it was 5.21; in the assay with MDAMB134VI, 7.83; in the assay on MCF10A, 7.37; in the assay with T4 it was 7.88. Also, the “-log10 GI50” value with T47D came to 5.56; with S1, 7.95; with MDAMB468, 8.41; in the assay on MDAMB175VII, 5.21; in the assay on MDAMB436 it was 7.86; in the assay with BT483, 5.35. Moreover, the “-log10 GI50” value in the assay with UACC893 was determined as 8.15; with SUM102PT, 5.38; with HCC202 it was 8.99; with HCC1428, 5.33; in the assay on HCC1954, 8.16.
For the compound `Cn1ncc(Cl)c1-c1cc(C(=O)N[C@H](CN)Cc2ccc(F)c(F)c2)oc1Cl`, the “-log10 GI50” value in the assay with MX1 is 8.11; in the assay with MDAMB134VI, 5.2; in the assay on MCF10A, 5.03; in the assay on T47D, 7.35; in the assay on MDAMB175VII it was 6.56; in the assay with 21NT, 5.35. The “-log10 GI50” value in the assay on 21MT1 worked out at 5.35; in the assay on HCC1428, 4.94.
On to `O=C(O)C1(C(=O)O)CCC1.[NH2-].[NH2-].[Pt+2]` [Carboplatin], for which the “-log10 GI50” value with HCC1937 turned out to be 4.47; in the assay with HBL100, 4.15; in the assay with ZR7530 it was 4.55; in the assay with MDAMB134VI it was 3.66; with MCF10A it was 4.2; in the assay on T4, 4.08. Moreover, the “-log10 GI50” value was found to be 4.02 in the assay with T47D; 4.48 in the assay on S1; 4.32 in the assay on MDAMB468; 4.44 in the assay on MDAMB175VII; 4.29 in the assay with MDAMB436; 5.82 in the assay on BT483. In addition, the “-log10 GI50” value in the assay with UACC893 was found to be 3.04; with HCC202 it was 4.44; in the assay on HCC1428, 3.86; in the assay with HCC1954, 4.42.
